Activity calls are given as the source filed them. The rule behind the calls is not given here.

Data set [1] deals with T1, hERG (Kv11.1, KCNH2) (Homo sapiens, UniProt Q12809). In words: in vitro.
Description: MMV: Malaria Box compounds were tested for inhibition of the human ether a go-go related gene (hERG), Kv11.1 channel, using IonWorks 384-well patch clamp electrophysiology at 1.1uM (3 independent assay plates up to 12 cells per concentration).
For data set [2], the target named is T1, hERG (Kv11.1, KCNH2). In words: in vitro. This is another data set of the same source.
Description: MMV: Malaria Box compounds were tested for inhibition of the human ether a go-go related gene (hERG), Kv11.1 channel, using IonWorks 384-well patch clamp electrophysiology at 11.1uM (3 independent assay plates up to 12 cells per concentration).

T1 sequence (Q12809 whole entry): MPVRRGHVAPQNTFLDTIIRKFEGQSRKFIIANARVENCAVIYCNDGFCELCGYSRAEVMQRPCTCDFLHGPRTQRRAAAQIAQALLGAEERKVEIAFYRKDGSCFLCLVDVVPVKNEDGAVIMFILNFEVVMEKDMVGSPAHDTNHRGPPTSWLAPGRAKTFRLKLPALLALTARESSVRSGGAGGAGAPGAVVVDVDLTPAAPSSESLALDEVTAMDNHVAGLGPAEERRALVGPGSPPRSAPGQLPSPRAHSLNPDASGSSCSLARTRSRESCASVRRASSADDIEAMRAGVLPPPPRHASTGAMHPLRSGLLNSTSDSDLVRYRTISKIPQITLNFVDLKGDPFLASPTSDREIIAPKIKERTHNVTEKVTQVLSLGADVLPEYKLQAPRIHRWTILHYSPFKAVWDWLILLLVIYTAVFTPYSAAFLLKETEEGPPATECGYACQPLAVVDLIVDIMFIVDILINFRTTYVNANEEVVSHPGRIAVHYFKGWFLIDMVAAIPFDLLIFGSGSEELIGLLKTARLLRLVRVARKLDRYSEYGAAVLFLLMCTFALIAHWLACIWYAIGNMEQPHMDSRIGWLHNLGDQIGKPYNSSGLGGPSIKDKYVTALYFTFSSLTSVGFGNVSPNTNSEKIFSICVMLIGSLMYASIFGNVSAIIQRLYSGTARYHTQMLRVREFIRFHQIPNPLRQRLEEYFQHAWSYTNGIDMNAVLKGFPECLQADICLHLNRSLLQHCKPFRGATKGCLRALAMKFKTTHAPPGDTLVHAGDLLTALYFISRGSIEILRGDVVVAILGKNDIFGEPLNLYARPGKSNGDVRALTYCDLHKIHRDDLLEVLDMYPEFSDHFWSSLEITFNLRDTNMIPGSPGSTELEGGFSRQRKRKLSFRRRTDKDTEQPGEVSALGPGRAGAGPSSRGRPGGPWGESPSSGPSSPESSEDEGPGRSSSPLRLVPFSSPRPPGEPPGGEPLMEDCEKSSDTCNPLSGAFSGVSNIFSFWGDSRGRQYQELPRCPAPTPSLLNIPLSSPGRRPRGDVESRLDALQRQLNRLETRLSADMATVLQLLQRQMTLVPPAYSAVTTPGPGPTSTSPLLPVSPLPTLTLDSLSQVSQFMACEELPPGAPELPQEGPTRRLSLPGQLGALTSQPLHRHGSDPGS

The term inhibition denotes the drop in the measured response relative to a control, in per cent. As to `O=C(Nc1ccc(Cl)c(Cl)c1)Nc1ccc(Cl)c(Cl)c1`, the inhibition at 1.1 µM against hERG (Kv11.1, KCNH2) [1] came to 15%. Also, on hERG (Kv11.1, KCNH2) [2], the inhibition at 11.1 µM is 103% (active).
Take `COc1ccc(-c2c(C)nn3c(N)c(C#N)cnc23)cc1OC`: on hERG (Kv11.1, KCNH2) [1], the inhibition at 1.1 µM was found to be 11%. The inhibition at 11.1 µM at hERG (Kv11.1, KCNH2) [2] is 11% (inactive).
The matching figures for `COc1ccc(/C=C2/SC(=Nc3ccccc3)NC2=O)cc1`: 12% and 27%.
As to `Cc1cccc(-n2ncc3c(O)nc(-n4nc(C)cc4NC(=O)c4cc5ccccc5o4)nc32)c1`, the inhibition at 1.1 µM at hERG (Kv11.1, KCNH2) [1] is -3%. On hERG (Kv11.1, KCNH2) [2], the inhibition at 11.1 µM is -8% (inactive).
The matching figures for `O=C(Nc1ccccc1O)c1ccc(Oc2cccc(C(=O)Nc3ccccc3O)c2)cc1`: -2% and 5% (inactive).
The matching figures for `OC1=C2C(=Nc3ccccc3SC2c2ccccc2)c2ccccc21` (stereo unspecified): 15% and 16% (inactive).
In the case of `N=c1n(CCN2CCCCC2)c2ccccc2n1CC(O)c1cccc(Br)c1` (stereo unspecified), on hERG (Kv11.1, KCNH2) [1], the inhibition at 1.1 µM was determined as 18%. Further, the inhibition at 11.1 µM at hERG (Kv11.1, KCNH2) [2] was 73% (active).
The matching figures for `Cc1ccc(-c2cc(C(=O)Nc3ccc(S(=O)(=O)N4CCCCC4)cc3)[nH]n2)c(O)c1`: -1% and 8% (inactive).
The matching figures for `COc1ccc(-c2nc(NC(=O)CS(=O)(=O)c3ccc(F)cc3)sc2C)cc1`: 7% and 69% (active).
For `COc1cc(C(=O)Nc2ccc(-c3nc4ccccc4[nH]3)cc2)cc(OC)c1OC`, in that order: -12% and 17% (inactive).
`FC(F)(F)c1cccc(Nc2nc3ccccc3nc2Nc2cccc(C(F)(F)F)c2)c1`: at hERG (Kv11.1, KCNH2) [1], the inhibition at 1.1 µM is -4%. For the same compound, the inhibition at 11.1 µM at hERG (Kv11.1, KCNH2) [2] is 8% (inactive).
For `c1ccc(-c2ccc(-c3nc4ccccc4[nH]3)cc2)cc1`, the inhibition at 1.1 µM against hERG (Kv11.1, KCNH2) [1] was -2%. In addition, at hERG (Kv11.1, KCNH2) [2], the inhibition at 11.1 µM was -8% (inactive).
The matching figures for `COc1cccc(NC(=O)[C@H](C(C)C)n2c(=O)[nH]c3ccccc3c2=O)c1`: 2% and 17% (inactive).
`COc1ccc2nc(N)nc(C)c2c1`: the inhibition at 1.1 µM against hERG (Kv11.1, KCNH2) [1] was 10%. On hERG (Kv11.1, KCNH2) [2], the inhibition at 11.1 µM was 4% (inactive).
For `COc1cccc(NC(=O)Cn2c(C)c(C#N)c3ccccc32)c1`, in that order: 2% and -4% (inactive).
The matching figures for `CCC(c1ccccc1)c1nn2c(-c3cccs3)nnc2s1` (stereo unspecified): 8% and 42%.
The matching figures for `CC(C)(C)c1ccc(O)c(CNC2CCCCC2)c1`: 10% and 35%.
In the case of `CC(Oc1ccc(NC(=O)c2cccs2)cc1)C(=O)c1ccc(Cl)cc1` (stereo unspecified), the inhibition at 1.1 µM at hERG (Kv11.1, KCNH2) [1] is -4%. The inhibition at 11.1 µM at hERG (Kv11.1, KCNH2) [2] is 55% (active).
For `CCCCNc1nc(NC(C)(C)C)nc(NC(C)(C)C)n1`, in that order: -1% and 1% (inactive).
For `COc1ccc(CNC(=O)c2cc3c(=O)n4ccccc4nc3n(CCc3ccccc3)c2=N)cc1`, in that order: 10% and 45%.
Take `CCOC(=O)c1c(NC(=O)c2ccccc2)sc2c(O)c(CN(CC)CC)ccc12`: the inhibition at 1.1 µM against hERG (Kv11.1, KCNH2) [1] came out at 4%. Also, the inhibition at 11.1 µM on hERG (Kv11.1, KCNH2) [2] is 23% (inactive).
For the compound `CCOc1cc(Br)c(C(C)NC(=O)c2cccc(OC)c2)cc1OCC` (stereo unspecified), at hERG (Kv11.1, KCNH2) [1], the inhibition at 1.1 µM was -12%. In addition, the inhibition at 11.1 µM on hERG (Kv11.1, KCNH2) [2] was 2% (inactive).
Take `CCOc1cc(Cl)c(C(C)NC(=O)c2cccc(OC)c2)cc1OCC` (stereo unspecified): the inhibition at 1.1 µM against hERG (Kv11.1, KCNH2) [1] was -3%. Further, the inhibition at 11.1 µM on hERG (Kv11.1, KCNH2) [2] is 9% (inactive).
The matching figures for `Cc1cc(Nc2ccc(C)c(Cl)c2)n2nc(C(F)(F)F)nc2n1`: 23% and 72% (active).
The matching figures for `FC(F)(F)c1cccc(Nc2nc(-c3ccccc3)nc3ncccc23)c1`: -8% and 0% (inactive).
For `CC(=O)c1sc(NC(=O)Nc2ccc(C)cc2C)nc1C`, in that order: 7% and 38%.
On to `CCCCOC(=O)c1ccc(Nc2cc(C)nc3ccc(OC)cc23)cc1`, for which the inhibition at 1.1 µM against hERG (Kv11.1, KCNH2) [1] is 65%. At hERG (Kv11.1, KCNH2) [2], the inhibition at 11.1 µM is 91%.
On to `Cn1c(=O)n(C)c2cc(CNCCNc3ccnc4cc(Cl)ccc34)ccc21`, for which the inhibition at 1.1 µM against hERG (Kv11.1, KCNH2) [1] came to 16%. Moreover, the inhibition at 11.1 µM at hERG (Kv11.1, KCNH2) [2] is 60% (active).
`CC(NCc1ccccc1)c1cc(Cl)ccc1O` (stereo unspecified): on hERG (Kv11.1, KCNH2) [1], the inhibition at 1.1 µM is -4%. The inhibition at 11.1 µM on hERG (Kv11.1, KCNH2) [2] amounted to 35%.
For `Cn1c(C(=O)c2cccc3ccccc23)nc2ccccc21`, in that order: -4% and 1% (inactive).
For `O=c1cc(NC2CCN(CCCc3ccccc3)CC2)c2cc(Cl)ccc2o1`, in that order: 89% and 101%.
For `Oc1ccc(Cl)cc1CNc1nc2ccccc2[nH]1`, the inhibition at 1.1 µM on hERG (Kv11.1, KCNH2) [1] is 14%. The inhibition at 11.1 µM on hERG (Kv11.1, KCNH2) [2] was 52% (active).
For `O=C(Nc1ccc(-c2nc3ccccc3[nH]2)cc1)c1ccc(Cl)c(Cl)c1`, in that order: 2% and 45%.
With `CCOc1cc(Cl)c(C(C)NC(=O)c2ccccc2)cc1OCC` (stereo unspecified), the inhibition at 1.1 µM at hERG (Kv11.1, KCNH2) [1] was -6%. On hERG (Kv11.1, KCNH2) [2], the inhibition at 11.1 µM was 7% (inactive).
The matching figures for `O=C(c1ccccc1F)N(Cc1ccc(Cl)cc1)c1ccccn1`: 7% and 22% (inactive).
`COCCn1c(C)nc2ccccc2c1=O`: the inhibition at 1.1 µM against hERG (Kv11.1, KCNH2) [1] was 3%. The inhibition at 11.1 µM at hERG (Kv11.1, KCNH2) [2] is 1% (inactive).
The matching figures for `O=C(Nc1cccc(-c2nc3ccccc3[nH]2)c1)c1cccc(NC(=O)c2ccco2)c1`: -6% and 6% (inactive).
For `COc1ccc(C(=O)Nc2ccc(Cl)cc2C(=O)Nc2ccncc2)cc1`, in that order: -6% and -3% (inactive).
The matching figures for `O=C(Nc1ccc(CN2CCOCC2)cc1)c1ccc(-c2ccc(Br)cc2)o1`: 42% and 98% (active).
On to `COc1ccccc1CNC(=O)CCn1c(=O)[nH]c2ccccc2c1=O`, for which the inhibition at 1.1 µM at hERG (Kv11.1, KCNH2) [1] is -6%. In addition, at hERG (Kv11.1, KCNH2) [2], the inhibition at 11.1 µM is 19% (inactive).
Take `O=C(Nc1ccc(Cl)cc1)N1CCN(c2ccc3nncn3n2)CC1`: the inhibition at 1.1 µM on hERG (Kv11.1, KCNH2) [1] was found to be 0%. In addition, on hERG (Kv11.1, KCNH2) [2], the inhibition at 11.1 µM is 58% (active).
For `O=C(CSc1ccc2nnc(-c3cccc(F)c3)n2n1)Nc1ccc2c(c1)OCO2`, in that order: 5% and 3% (inactive).
The matching figures for `CCN(CC)CCCNc1ccnc2cc3ccccc3cc12`: -2% and 23% (inactive).
For `Oc1c(C(Nc2ccccn2)c2cccc(Oc3ccccc3)c2)ccc2cccnc12` (stereo unspecified), in that order: 20% and 97% (active).
On to `CCOC(=O)c1cn(CC)c2cc(N3CCCCC3)c(F)cc2c1=O`, for which the inhibition at 1.1 µM on hERG (Kv11.1, KCNH2) [1] was -4%. Moreover, the inhibition at 11.1 µM against hERG (Kv11.1, KCNH2) [2] stood at 25%.
The matching figures for `CCCc1cc(O)c2c3c(c(=O)oc2c1)CN(C)CC3`: 46% and 94% (active).
The matching figures for `CC(C)(C)C(=O)Nc1ccc(C(=O)Nc2cccc(-c3nc4ccccc4[nH]3)c2)cc1`: 8% and 40%.
The matching figures for `COc1ccc(-c2nonc2NC(=O)c2cccc(C)c2)cc1OC`: 5% and -3% (inactive).
With `OC(CNC1CCCCC1)Cn1c2ccc(I)cc2c2cc(I)ccc21` (stereo unspecified), at hERG (Kv11.1, KCNH2) [1], the inhibition at 1.1 µM was -5%. The inhibition at 11.1 µM on hERG (Kv11.1, KCNH2) [2] was 12% (inactive).
The matching figures for `CCc1ccc(CNCC(O)c2ccccc2)cc1` (stereo unspecified): 32% and 67% (active).
The matching figures for `CCOc1ccc(-c2nonc2NC(=O)c2cccc(C)c2)cc1OCC`: -1% and 0% (inactive).
The matching figures for `COc1ccc(N2CCN(C(CNC(=O)CC(C)(C)C)c3ccc4c(c3)OCO4)CC2)cc1` (stereo unspecified): -5% and 24% (inactive).
Consider `COc1ccc2c(=O)cc(C(Cl)(Cl)Cl)oc2c1`, for which the inhibition at 1.1 µM against hERG (Kv11.1, KCNH2) [1] came to 6%. In addition, the inhibition at 11.1 µM at hERG (Kv11.1, KCNH2) [2] was 9% (inactive).
The matching figures for `CC(C)(C)CC(C)(C)NCC(O)COc1ccc2c(c1)CCC2` (stereo unspecified): 8% and 62% (active).
For `CCOc1ccc(-c2nc(NC(=O)c3cccc(S(C)(=O)=O)c3)sc2C)cc1`, in that order: 3% and 29%.
For `COc1ccccc1N1CCN(C(CNS(=O)(=O)c2ccc(Cl)cc2)c2cccnc2)CC1` (stereo unspecified), in that order: 4% and 44%.
On to `Oc1ccc(Br)cc1CN1CCN(Cc2ccc(Cl)cc2)CC1`, for which, at hERG (Kv11.1, KCNH2) [1], the inhibition at 1.1 µM came to 2%. Also, the inhibition at 11.1 µM on hERG (Kv11.1, KCNH2) [2] was 10% (inactive).
With `CCOc1c(Cl)cc(CNC(C)C(O)c2ccccc2)cc1OC` (stereo unspecified), the inhibition at 1.1 µM against hERG (Kv11.1, KCNH2) [1] is -4%. On hERG (Kv11.1, KCNH2) [2], the inhibition at 11.1 µM was determined as 39%.
The matching figures for `O=c1c2c([nH]c3ccccc13)CCCC2`: 4% and 6% (inactive).
For `CC1CC2=C(CC1CNCCCN(C)C)C(C)(C)CCC2` (stereo unspecified), in that order: -3% and 77% (active).
The matching figures for `CCOC(=O)c1cnc2ccc(OC)cc2c1NCc1ccccc1`: -2% and 4% (inactive).
With `Cc1c(C)n(CC(O)CNC2CCCCC2C)c2ccccc12` (stereo unspecified), on hERG (Kv11.1, KCNH2) [1], the inhibition at 1.1 µM is -10%. The inhibition at 11.1 µM on hERG (Kv11.1, KCNH2) [2] is 20% (inactive).
For the compound `CCOC(=O)c1c[nH]c2c(CC)cccc2c1=O`, the inhibition at 1.1 µM against hERG (Kv11.1, KCNH2) [1] worked out at 10%. Besides, the inhibition at 11.1 µM on hERG (Kv11.1, KCNH2) [2] is 5% (inactive).

The values are drawn from ChEMBL document CHEMBL3301458, “MMV Malaria Box hERG screening”.
